Assays:
Format in all cases: cell-based
Pseudomonas aerugenosa = test: Agar Dilution Method of Sensitivity testing, NE + antibiotic; settings: for Growth Patterns after addition of NE: no. of cultures +++ (growth) / Growth Patterns after addition of NE: no. of cultures −−− (inhibition of growth): 16 resistant Pseudomonas strains, 48 hours
Experimental: (§1) Two kinds of investigations were carried-out using these bacterial isolates—using an Agar Dilution Method of Sensitivity testing.
(§2) i) The culture medium (Mueller Hinton Agar) was melted and distributed into a number of test tubes.
(§3) ii) The stock solution of NE was dispensed into these test tubes in four different concentrations viz.
(§4) iii) In the same medium, one of the antibiotics under investigation was also added so as to provide a variable concentration (at break-even point concentration) as described below:
(§5) iv) The culture medium containing NE extract+the antibiotic were poured into petri dishes and allowed to solidify.
(§6) v) The resistant bacterial strains were inoculated onto these plates, incubated for 48 hours and the growth patterns were studied on each plate.

Salmonella senftenberg [1] = test: Broth Macro Dilution Test, MIC and MBC; settings: Example 13: strain from burn wound swab culture; antibiotic alone
Source text: (§7) This was done by estimation of the Minimum Inhibitory Concentration (MIC) and Minimum Bactericidal Concentration (MBC) on the selected isolates by a Broth Macro Dilution Test.
(§8) While conducting these tests, the guidelines given by the National committee of Clinical Laboratory Standards 1995 protocols were employed. Cation Supplemented Mueller Hinton Broth was used as medium for all organisms excepting for β haemolytic streptococci for which, Todd Hewit's Broth was used as medium.
(§9) The following concentrations of antibiotics were tested to determine MIC and MBC.
(§10) Co-trimoxazole (Sulpharnethoxazole/Trimethoprim/μg/μg per ml)
(§11) A minimum inhibitory concentration is the lowest level of antibiotic needed to cause an inhibition to bacterial growth in culture medium whereas, the minimum bactericidal concentration is the lowest concentration of antibiotic to achieve a 100% killing of bacteria. Thus, these two values are the practical indices of intensity of bacterial resistance to a given antibiotic. On the other hand, a break-even point of any antibiotic indicates the attainable blood levels after an administration of full dose, in human/animal body. Thus, this point indicates the practical dosage of administering any given antibiotic effectively and beyond this point, even if an antibiotic is found to act effectively in experimental situation—such dose cannot be administered in a clinical situation.

Klebsiella pneumoniae [2] = test: Broth Macro Dilution Test, MIC and MBC; settings: antibiotic alone
Source text: as §7, §8, §9, §10, §11

Salmonella senftenberg [3] = test: Broth tube test of NE with antibiotic at break point, percentage of killing; settings: Example 13 strain; antibiotic in combination with NE, uniform in all four concentrations
Experimental: (§12) Since all the study isolates are resistant to the concerned antibiotics, each antibiotic is taken at its breakpoint concentration, (the highest serum concentration of that particular antibiotic reached after the maximum therapeutic dose in-vivo). The break points for various antibiotics are as follows:
(§13) Preparation of Neem Extract: Stock solution of neem extract (1 mg/ml) was prepared, filtered and autoclaved. It was used in 4 concentrations—1000 μg/ml; 500 μg/ml; 250 μg/ml; 125 μg/ml.
(§14) A set of four tubes with variable concentrations of the extract is prepared and to each of these tubes, the break point concentration of antibiotics is added. Now, these sets are inoculated with the study isolate in the same manner as per the broth dilution procedure. A set of six controls is inoculated with each isolate—in parallel with the main experiment.
(§15) 2. Only antibiotic solution
(§16) 3. Medium and antibiotic solution with inoculum
(§17) 5. Only Neem extract at 250 μg/ml
(§18) 6. Medium with Neem Extract and inoculum
(§19) Reading the test All the tests and control tubes are observed for visible turbidity of growth first. Since all the study isolates were earlier confirmed to be resistant to the antibiotics, the bacterial growth is expected at the breakpoint concentration of the antibiotic. Any reduction in the turbidity as compared to the control tube no. 3 is noted as a possible additive or synergistic effect of the neem extract with the antibiotic. In absence of such effect, the tubes may show growth matching with the control no. 4.
(§20) In case of a positive result, further sub-culturing was taken up, on solid media for colony counts with a calibrated loop. The colony counts could be noted by a semi quantitative method as 101 to 10^5 CFU/ml (Colony forming units). This is finally expressed as the percentage of killing as compared to the colony count obtained with control no. 4. Usually control tubes no. 3, 4 and 6 had similar colony counts.

Klebsiella pneumoniae [4] = test: as above
Experimental: as §12, §13, §14, §15, §16, §17, §18, §19, §20

Staphylococcus aureus = test: Agar Dilution Method of Sensitivity testing, NE alone and NE + antibiotic; settings: resistant S. aureus cultures, 48 hours
Experimental: as §1
i) To ascertain whether, NE can work as an antibacterial substance on its own. For this purpose, a stock-solution of NE was prepared and was sterilized as described in the preliminary experiments.
ii) This stock-solution was dispensed into the culture medium (Mueller Hinton Agar) so as to provide while; the medium was in liquid form. Four different concentrations of NE, viz.
iii) This medium was poured into petri dishes and allowed to solidify. Resistant cultures were inoculated on to these plates and after incubation for 48 hours, the growth patterns were assessed.
iv) The experiments were run in triplicate, for each concentration—as per standard practices of microbiological testing procedures.
as §2, §3, §4, §5, §6
These cultures were obtained various clinical samples, such as sputum, non-healing infected wounds, throat swabs etc.

[5] = antibiotic at break-even point + NE 125 μg/mL
[6] = antibiotic at break-even point + NE 250 μg/mL
[7] = antibiotic at break-even point + NE 500 μg/mL
[8] = antibiotic at break-even point + NE 1000 μg/mL
[9] = Example 3: strain from non-healing burn wound
[10] = Example 4: strain from wound swab culture

CCN1CCN(C(=O)N[C@@H](C(=O)N[C@@H]2C(=O)N3[C@@H]2SC(C)(C)[C@@H]3C(=O)O)c2ccccc2)C(=O)C1=O [Piperacillin]
Growth Patterns after addition of NE: no. of cultures +++ (growth) (Pseudomonas aerugenosa; [5]): 3
Growth Patterns after addition of NE: no. of cultures −−− (inhibition of growth) (Pseudomonas aerugenosa; [5]): 13
Growth Patterns after addition of NE: no. of cultures +++ (growth) (Pseudomonas aerugenosa; [6]): 3
Growth Patterns after addition of NE: no. of cultures −−− (inhibition of growth) (Pseudomonas aerugenosa; [6]): 13
Growth Patterns after addition of NE: no. of cultures +++ (growth) (Pseudomonas aerugenosa; [7]): 3
Growth Patterns after addition of NE: no. of cultures −−− (inhibition of growth) (Pseudomonas aerugenosa; [7]): 13
Growth Patterns after addition of NE: no. of cultures +++ (growth) (Pseudomonas aerugenosa; [8]): 3
Growth Patterns after addition of NE: no. of cultures −−− (inhibition of growth) (Pseudomonas aerugenosa; [8]): 13
isolates sensitized to the antibiotic by NE (Pseudomonas aerugenosa; of 16 resistant strains, NE + antibiotic): 13

Co-trimoxazole
MBC (Salmonella senftenberg [1]): 16/304
MIC (Salmonella senftenberg [1]): 8/152
MBC (Klebsiella pneumoniae [2]; [9]): > 16/304
MIC (Klebsiella pneumoniae [2]; [9]): 8/152
MBC (Klebsiella pneumoniae [2]; [10]): 16/304
MIC (Klebsiella pneumoniae [2]; [10]): 8/152
killing (Salmonella senftenberg [3]): 60%
killing (Klebsiella pneumoniae [4]; Example 3 strain, antibiotic at break point in combination with NE, uniform at 1000, 500, 250, 125 μg/ml): 50%
killing (Klebsiella pneumoniae [4]; Example 4 strain, antibiotic at break-even concentration with NE, uniform at all four NE concentrations): 90%

Gentamicin
Growth Patterns after addition of NE: no. of cultures +++ (growth) (Staphylococcus aureus; [5]): 89
Growth Patterns after addition of NE: no. of cultures −−− (inhibition of growth) (Staphylococcus aureus; [5]): 13
Growth Patterns after addition of NE: no. of cultures +++ (growth) (Staphylococcus aureus; [6]): 88
Growth Patterns after addition of NE: no. of cultures −−− (inhibition of growth) (Staphylococcus aureus; [6]): 14
Growth Patterns after addition of NE: no. of cultures +++ (growth) (Staphylococcus aureus; [7]): 88
Growth Patterns after addition of NE: no. of cultures −−− (inhibition of growth) (Staphylococcus aureus; [7]): 14
Growth Patterns after addition of NE: no. of cultures +++ (growth) (Staphylococcus aureus; [8]): 88
Growth Patterns after addition of NE: no. of cultures −−− (inhibition of growth) (Staphylococcus aureus; [8]): 14
